Data taken from patent US20240157166A1, “ALTERNATING MAGNETIC FIELDS AND ANTIBIOTICS TO ERADICATE BIOFILM ON METAL IN A SYNERGISTIC FASHION” (priority 2021, published 2024).
≈ marks a conversion by molar mass, not a printed value.

Experiments:
S. aureus (UAMS1) = experiment: Minimum inhibitory concentration, S. aureus UAMS1; type: cell-based; conditions: Staphylococcus aureus; strain UAMS1
[1] = system: S. aureus (UAMS1) biofilm; experiment: Biofilm CFU on stainless-steel rings, antibiotic with or without iAMF, UAMS1; type: cell-based; conditions: for CFU at 24 h, iAMF and antibiotic versus antibiotic alone: antibiotic 2 μg/mL, iAMF Tmax=65 °C, 15 min per dose at 0 and 12 h
Protocol: Biofilm preparation, treatment and quantification.
Doses were delivered at 0 and 12 hours and ring biofilm burden was quantified at various time points as above. For S. aureus experiments, biofilm of UAMS1 were prepared on stainless steel rings according to the culturing protocol and incubated with 2 μg/mL of ceftriaxone or 2 μg/mL of linezolid, in 10 mL TSB media. […] Doses were delivered at 0 and 12 hours and biofilm burden was quantified at 24 hours.

[2] = system: MDR P. aeruginosa (MB699) biofilm; experiment: Biofilm CFU on rings, antibiotic with or without iAMF, MDR strain MB699; conditions: for CFU reduction with iAMF at other antibiotic concentrations: meropenem sub-MIC 32 μg/mL, ciprofloxacin increased concentration (128 μg/ml), 48 h
GFP-PAO1 biofilms = experiment: Laser scanning confocal microscopy of GFP-PAO1 biofilm; conditions: 0.5 μg/mL
Description: After staining, rings were mounted on a 50 mm glass bottom plate and images were captured with a Zeiss LSM880 Airyscan laser confocal microscope. The GFP-PA01 bacteria and ConA-stained EPS were imaged using a 40× objective lens. Multiple regions of the ring surface were randomly selected, and Z-stacks were acquired with slice step size of 0.5 μm. Before image processing, the z-stacks were deconvolved using Autoquant×3 (Media Cybernetics, MD, USA) to improve the image resolution in X, Y and Z directions. The deconvolved images were analyzed with Imaris x64 9.1.2 (Bitplane AG, Zurich, Switzerland).

[3] = system: P. aeruginosa (MB699) biofilm; experiment: Scanning electron microscopy of MB699 biofilm; type: cell-based; conditions: 64 μg/mL; for bacterial morphology by SEM, antibiotic alone: 12 h, no iAMF; for bacterial morphology by SEM, iAMF and antibiotic: 12 h post iAMF (Tmax=65 °C, Nexp=12)
Protocol: […]. The rings were carefully transferred to 4 mL PBS, rinsed in 4 mL of 0.1 M sodium cacodylate buffer three times and fixed for 24 h in 4 mL of 2% glutaraldehyde, 2% paraformaldehyde in 0.1 M sodium cacodylate buffer. After rinsing in 4 mL of cacodylate buffer three times, the samples were re-fixed in 4 mL of 2% osmium in 0.1 M sodium cacodylate buffer for 2 h. Then the rings were further rinsed with 4 mL of deionized water five times and dehydrated at room temperature in five steps by placing the rings in 4 mL of 50, 70 (twice), 85, 95 (twice) and 100% ethanol respectively for 5 min per solution. The rings were then transferred to 4 mL of 25, 50, 75 and 100% (twice) hexamethyldisilazane (HMDS) in ethanol consecutively for 15 min each. Finally, the samples were left to dry for 24 h in a fume hood. The specimens were mounted on aluminum stubs, gold/palladium sputter coated, and examined using a Zeiss Sigma VP scanning electron microscope. The images were acquired at 10 kV with magnification of approximately 35000×.

[4] = system: MDR P. aeruginosa (MB699); experiment: microbe, parasite or virus in culture; conditions: Pseudomonas aeruginosa, read-out: minimum inhibitory concentration (MIC)

SMILES	MIC (S. aureus (UAMS1)) [µg/mL]	CFU at 24 h, iAMF and antibiotic versus antibiotic alone [1]	CFU reduction with iAMF at other antibiotic concentrations [2]	bacterial morphology by SEM, antibiotic alone [3]	bacterial morphology by SEM, iAMF and antibiotic [3]	further results
CO/N=C(\C(=O)N[C@@H]1C(=O)N2C(C(=O)O)=C(CSc3nc(=O)c(=O)[nH]n3C)CS[C@H]12)c1csc(N)n1 [ceftriaxone]	2 (≈ 3.61 µM)	significantly lower CFU				CFU after 24 h ([1]; 2 μg/mL ceftriaxone in combination with iAMF (doses at 0 and 12 h)): approaching the limit of detection; CFU reduction after 24 h ([1]; ceftriaxone alone, 2 μg/mL): ~2 log; initial decrease of biofilm CFU ([1]; iAMF (Tmax=65 °C, 15 min dose) and 2 μg/mL ceftriaxone, after first dose): over 3 logs
CC(=O)NC[C@H]1CN(c2ccc(N3CCOCC3)c(F)c2)C(=O)O1 [linezolid]	2 (≈ 5.93 µM)	significantly lower CFU				magnitude of biofilm reduction, 7-day versus 2-day biofilm ([1]; iAMF (Tmax=65 °C, 15 min per dose) and 2 μg mL-1 linezolid): no significant difference
O=C(O)c1cn(C2CC2)c2cc(N3CCNCC3)c(F)cc2c1=O [ciprofloxacin]			did not lead to enhanced CFU decreases	no obvious morphological changes	slight lengthening of bacteria and increased wrinkling of the membrane	bacterial burden (CFU) at 48 h with iAMF and antibiotic [2]: did not result in a further reduction of CFU; bacterial morphology by confocal microscopy, ciprofloxacin only (GFP-PAO1 biofilms; 12 h post-treatment): slight elongation; EPS staining and morphology by confocal microscopy, iAMF and ciprofloxacin (GFP-PAO1 biofilms; iAMF Tmax=65 °C, Nexp=12, 12 h): less dense EPS staining
C[C@@H](O)[C@H]1C(=O)N2C(C(=O)O)=C(S[C@@H]3CN[C@H](C(=O)N(C)C)C3)[C@H](C)[C@H]12 [meropenem]			also seen	no obvious morphological changes	fragmented and deformed bacterial cells	interaction of iAMF and antibiotic in MDR strain ([2]; strain with oprD porin and DNA gyrase mutations): synergistic effect; MIC [4]: 64 µg/mL (≈ 167 µM)
